Where a name gives a salt, the structure may show the parent alone.
Each compound was assayed on recombinant guanylate cyclase reporter cell line (assay: Action on recombinant guanylate cyclase reporter cell line (MEC)). Conditions: in some cases mean values obtained from individual determinations.
Type: cell-based
Method: B-2. Action on Recombinant Guanylate Cyclase Reporter Cell Line
The cellular action of the compounds according to the invention is determined on a recombinant guanylate cyclase reporter cell line, as described in F. Wunder et al., Anal. Biochem. 339, 104-112 (2005).
Representative values (MEC=minimal effective concentration) for the compounds according to the invention are shown in the following table (in some cases as mean values obtained from individual determinations): […]
`CCCC[C@H](CO)NC(=O)c1c(C)nc2c(OCc3c(Cl)cccc3Cl)cccn12` [Example 8, 8-[(2,6-dichlorobenzyl)oxy]-N-[(2R)-1-hydroxyhexan-2-yl]-2-methylimidazo[1,2-a]pyridine-3-carboxamide] was tested, and the minimal effective concentration was 0.3 µM.
With `Cc1nc2c(OCC3CCC3)cccn2c1C(=O)NCCOCCO` [Example 98, 8-(cyclobutylmethoxy)-N-[2-(2-hydroxyethoxy)ethyl]-2-methylimidazo[1,2-a]pyridine-3-carboxamide] the minimal effective concentration was 3 µM.
`Cc1nc2c(OCc3ccccc3Br)cccn2c1C(=O)NC(CO)CO` [Example 54, 8-[(2-bromobenzyl)oxy]-N-(1,3-dihydroxypropan-2-yl)-2-methylimidazo[1,2-a]pyridine-3-carboxamide] was tested, and the minimal effective concentration was 10 µM.
In the case of `Cc1nc2c(OCc3c(F)cccc3F)cccn2c1C(=O)NC(C)(C)[C@H](C)O` [Example 20, 8-[(2,6-difluorobenzyl)oxy]-N-[(3S)-3-hydroxy-2-methylbutan-2-yl]-2-methylimidazo[1,2-a]-pyridine-3-carboxamide], the minimal effective concentration is reported as 1 µM.
Compound `Cc1nc2c(OCc3c(F)cccc3F)cccn2c1C(=O)NC(CO)c1ccccn1` (racemic) [Example 119, rac-8-[(2,6-difluorobenzyl)oxy]-N-[2-hydroxy-1-(pyridin-2-yl)ethyl]-2-methylimidazo[1,2-a]-pyridine-3-carboxamide] has a minimal effective concentration of 0.3 µM.
`C#Cc1cc(OCc2c(F)cccc2F)c2nc(C)c(C(=O)N[C@@H](CO)CCCC)n2c1` [Example 126, 8-[(2,6-Difluorobenzyl)oxy]-6-ethynyl-N-[(2R)-1-hydroxyhexan-2-yl]-2-methylimidazo[1,2-a]-pyridine-3-carboxamide] gave a minimal effective concentration of 0.1 µM.
For `CCC[C@@H](CO)NC(=O)c1c(C)nc2c(OCC3CCCCC3)cccn12` [Example 89, 8-(cyclohexylmethoxy)-N-[(2S)-1-hydroxypentan-2-yl]-2-methylimidazo[1,2-a]pyridine-3-carboxamide], the minimal effective concentration was 1 µM.
Work on `Cc1nc2c(OCc3c(F)cccc3F)cccn2c1C(=O)NC(CCC(F)(F)F)C(C)(C)O` (single isomer, unassigned; ent-8) [Example 155, ent-8-[(2,6-Difluorobenzyl)oxy]-2-methyl-N-(6,6,6-trifluoro-2-hydroxy-2-methylhexan-3-yl)-imidazo[1,2-a]pyridine-3-carboxamide (enantiomer B)] yielded a minimal effective concentration of 0.1 µM.
Work on `CSCC[C@H](CO)NC(=O)c1c(C)nc2c(OCc3c(F)cccc3F)cccn12` [Example 25, 8-[(2,6-difluorobenzyl)oxy]-N-[(2R)-1-hydroxy-4-(methylsulphanyl)butan-2-yl]-2-methyl-imidazo[1,2-a]pyridine-3-carboxamide] yielded a minimal effective concentration of 0.1 µM.
With `Cc1nc2c(OCc3c(F)cccc3F)cccn2c1C(=O)N[C@@H]1CCC[C@@H]1O` [Example 37, 8-[(2,6-difluorobenzyl)oxy]-N-[(1R,2S)-2-hydroxycyclopentyl]-2-methylimidazo[1,2-a]-pyridine-3-carboxamide] the minimal effective concentration was 0.3 µM.
`CCCC[C@H](CO)NC(=O)c1c(C)nc2c(OCc3cccc(C(F)(F)F)c3F)cccn12` [Example 14, 8-{[2-fluoro-3-(trifluoromethyl)benzyl]oxy}-N-[(2R)-1-hydroxyhexan-2-yl]-2-methylimidazo[1,2-a]-pyridine-3-carboxamide] gave a minimal effective concentration of 3 µM.
Compound `Cc1nc2c(OCC3CCC3)cccn2c1C(=O)NCCC1(O)CCCCC1` [Example 99, 8-(cyclobutylmethoxy)-N-[2-(1-hydroxycyclohexyl)ethyl]-2-methylimidazo[1,2-a]pyridine-3-carboxamide] has a minimal effective concentration of 3 µM.
`Cc1nc2c(OCC3CCCCC3)cccn2c1C(=O)N[C@@H](C)CO` [Example 75, 8-(cyclohexylmethoxy)-N-[(2S)-1-hydroxypropan-2-yl]-2-methylimidazo[1,2-a]pyridine-3-carboxamide] showed a minimal effective concentration of 0.22 µM.
`Cc1nc2c(OCC3CCCCC3)cccn2c1C(=O)NC(CO)(CO)CO` [Example 77, 8-(cyclohexylmethoxy)-N-[1,3-dihydroxy-2-(hydroxymethyl)propan-2yl]-2-methylimidazo[1,2-a]pyridine-3-carboxamide formate] gave a minimal effective concentration of 0.3 µM.
`Cc1nc2c(OCc3c(F)cccc3F)cccn2c1C(=O)NC(CO)c1ccc(F)cc1` (single isomer, unassigned; ent-8) [Example 107, ent-8-[(2,6-Difluorobenzyl)oxy]-N-[1-(4-fluorophenyl)-2-hydroxyethyl]-2-methylimidazo[1,2-a]-pyridine-3-carboxamide] showed a minimal effective concentration of 0.1 µM.
In the case of `Cc1nc2c(OCc3c(F)cccc3F)cccn2c1C(=O)NC(C)C(O)C(F)(F)F` (single isomer, unassigned) [Example 145, 8-[(2,6-Difluorobenzyl)oxy]-2-methyl-N-(4,4,4-trifluoro-3-hydroxybutan-2-yl)imidazo[1,2-a]-pyridine-3-carboxamide], the minimal effective concentration is reported as >10 µM.
Work on `Cc1nc2c(OCc3c(F)cccc3F)cccn2c1C(=O)NC1(CO)CCC1` [Example 125, 8-[(2,6-Difluorobenzyl)oxy]-N-[1-(hydroxymethyl)cyclobutyl]-2-methylimidazo[1,2-a]pyridine-3-carboxamide] yielded a minimal effective concentration of 0.3 µM.
Compound `CCCC[C@H](CO)NC(=O)c1c(C)nc2c(OCc3c(F)c(F)cc(F)c3F)cccn12` [Example 7, N-[(2R)-1-hydroxyhexan-2-yl]-2-methyl-8-[(2,3,5,6-tetrafluorobenzyl)oxy]imidazo[1,2-a]pyridine-3-carboxamide] has a minimal effective concentration of 0.3 µM.
`CCCC[C@H](CO)NC(=O)c1c(C)nc2c(OCc3c(F)cccc3F)cc(CC)cn12` [Example 60, 8-[(2,6-difluorobenzyl)oxy]-6-ethyl-N-[(2R)-1-hydroxyhexan-2-yl]-2-methylimidazo[1,2-a]pyridine-3-carboxamide] was tested, and the minimal effective concentration was 0.1 µM.
For `CCOCC(CO)NC(=O)c1c(C)nc2c(OCc3c(F)cccc3F)cccn12` (single isomer, unassigned; ent-8) [Example 161, ent-8-[(2,6-Difluorobenzyl)oxy]-N-(1-ethoxy-3-hydroxypropan-2-yl)-2-methylimidazo[1,2-a]-pyridine-3-carboxamide (enantiomer A)], the minimal effective concentration was 1 µM.
`Cc1nc2c(OCc3c(F)cccc3F)cccn2c1C(=O)NC[C@@H](O)c1ccccc1` [Example 32, 8-[(2,6-difluorobenzyl)oxy]-N-[(2S)-2-hydroxy-2-phenylethyl]-2-methylimidazo[1,2-a]pyridine-3-carboxamide] was tested, and the minimal effective concentration was 1 µM.
With `Cc1nc2c(OCC3CCCCC3)cccn2c1C(=O)N[C@H]1CCC[C@@H]1O` (racemic) [Example 71, (rac)-8-(cyclohexylmethoxy)-N-[trans-2-hydroxycyclopentyl]-2-methylimidazo[1,2-a]-pyridine-3-carboxamide] the minimal effective concentration was 0.1 µM.
Work on `Cc1nc2c(OCC3CCCCC3)cccn2c1C(=O)NCCCO` [Example 82, 8-(cyclohexylmethoxy)-N-(3-hydroxypropyl)-2-methylimidazo[1,2-a]pyridine-3-carboxamide] yielded a minimal effective concentration of 0.3 µM.
For `Cc1nc2c(OCc3c(F)cccc3F)cccn2c1C(=O)NC(CO)CCCC(F)(F)F` (single isomer, unassigned; ent-8) [Example 123, ent-8-[(2,6-Difluorobenzyl)oxy]-2-methyl-N-(6,6,6-trifluoro-1-hydroxyhexan-2-yl)imidazo[1,2-a]-pyridine-3-carboxamide], the minimal effective concentration was 0.03 µM.
Compound `Cc1nc2c(OCc3c(F)cccc3F)cccn2c1C(=O)NC(CO)c1ccc(F)cc1` (racemic) [Example 103, rac-8-[(2,6-difluorobenzyl)oxy]-N-[1-(4-fluorophenyl)-2-hydroxyethyl]-2-methylimidazo-[1,2-a]pyridine-3-carboxamide trifluoroacetate] has a minimal effective concentration of 0.1 µM.
In the case of `Cc1cc(OCC2CC(F)(F)C2)c2nc(C)c(C(=O)NC(CCCC(F)(F)F)C(C)(C)O)n2c1` (racemic) [Example 176, rac-8-[(3,3-Difluorocyclobutyl)methoxy]-2,6-dimethyl-N-(7,7,7-trifluoro-2-hydroxy-2-methylheptan-3-yl)imidazo[1,2-a]pyridine-3-carboxamide], the minimal effective concentration is reported as 3 µM.
With `CSCC[C@@H](CO)NC(=O)c1c(C)nc2c(OCC3CCCCC3)cccn12` [Example 90, 8-(cyclohexylmethoxy)-N-[(2S)-1-hydroxy-4-(methylsulphanyl)butan-2-yl]-2-methylimidazo[1,2-a]pyridine-3-carboxamide] the minimal effective concentration was 1 µM.
With `CCCC[C@H](CO)NC(=O)c1c(C)nc2c(OCc3c(F)cccc3F)cc(N3CCCC3)cn12` [Example 64, 8-[(2,6-difluorobenzyl)oxy]-N-[(2R)-1-hydroxyhexan-2-yl]-2-methyl-6-(pyrrolidin-1-yl)imidazo[1,2-a]pyridine-3-carboxamide] the minimal effective concentration was 3 µM.
Work on `Cc1nc2c(OCc3c(F)cccc3F)cccn2c1C(=O)NCCC(C)(C)O` [Example 153, 8-[(2,6-difluorobenzyl)oxy]-N-(3-hydroxy-3-methylbutyl)-2-methylimidazo[1,2-a]pyridine-3-carboxamide] yielded a minimal effective concentration of 0.3 µM.
Work on `Cc1nc2c(OCc3c(F)cccc3F)cccn2c1C(=O)NC(CO)CC(F)(F)F` (racemic) [Example 100, rac-8-[(2,6-Difluorobenzyl)oxy]-2-methyl-N-(4,4,4-trifluoro-1-hydroxybutan-2-yl)imidazo[1,2-a]-pyridine-3-carboxamide trifluoroacetate] yielded a minimal effective concentration of 0.03 µM.
For `Cc1nc2c(OCc3c(F)cccc3F)cccn2c1C(=O)NCCC1(O)CCCCC1` [Example 116, 8-[(2,6-difluorobenzyl)oxy]-N-[2-(1-hydroxycyclohexyl)ethyl]-2-methylimidazo[1,2-a]pyridine-3-carboxamide], the minimal effective concentration was 0.3 µM.
Work on `CC[C@@H](CO)NC(=O)c1c(C)nc2c(OCC3CCCCC3)cccn12` [Example 88, 8-(cyclohexylmethoxy)-N-[(2S)-1-hydroxybutan-2-yl]-2-methylimidazo[1,2-a]pyridine-3-carboxamide] yielded a minimal effective concentration of 1 µM.
